Source: patent US10955415B2, “CD247 as a biomarker for assessing the effect of chemotherapeutic and biological drugs” (YISSUM RESEARCH DEVELOPMENT COMPANY OF THE HEBREW …, priority 2011, dated 2021)
Entries after “also recorded” stand apart in the source; their conditions may differ.

Legend:
[1] = test system: colorectal cancer (CRC); experiment: Survival, colon structure and tumor loads of CRC-bearing mice; assay type: in vivo
Protocol: Survival of mice CRC, CRC-5-FU or CRC-5FU/CPT-11 treatment is shown as Kaplan-Meyer curve (n=20). Time points of AOM injections and the period of DSS addition are represented by gray arrows and lines, respectively. Start point of chemotherapy treatment and continual boosts are shown as black arrows.
The mouse model for CRC was established by two repeated injections of azoxymethane (AOM) (Sigma) in intervals of two weeks followed by two weekly administrations of DSS (Sigma) that was added to drinking water every two weeks for duration of about seven days. In order to test the influence of chemotherapeutic drugs on the induced-chronic inflammatory environment in a CRC model, after the second DSS treatment mice were randomized into three groups (n=10 mice) as follows: CRC control group, CRC and 5-FU i.p inoculated group and CRC and CPT-11 i.p inoculated group. Mice were sacrificed at week +11, three weeks after the second DSS treatment.
It important to note that in each of the experiments performed (presented in FIG. 21 and FIG. 22), pathological macroscopic and microscopic tests have been performed on the structure of the colon and counts were made of the tumor loads.

[2] = test system: CD4+Foxp3+ Treg cells; design: species or system mice; conditions: mouse, in vivo
[3] = test system: Thy1.2+ (CD90+) T-cells; experiment: T-cell proliferation of CFSE-labeled splenocytes activated with anti-CD3 and anti-CD28; assay type: in vivo; conditions: splenocytes of BCG-inflamed treated mice, anti-CD3/anti-CD28 activation
Protocol: FIG. 2C. Splenocytes from untreated, inflamed, and inflamed-treated i.v. with irinotecan were labeled with CFSE and activated with anti-CD3 and anti-CD28 antibodies or left non-activated. The proliferative response was assessed by monitoring cell divisions of gated CFSE-labeled Thy1.2+ (CD90+) cells. Data was calculated by percent of proliferating cells compared to steady state of non-activated of each group.
FIG. 18A-18E. Splenocytes and PBLs from mice untreated (naïve), inflamed, or inflamed and treated with 5-FU or CPT-11 were fixed, permeabilized, and double stained for the expression of CD247 (ζ-chain) (FIGS. 18A, 18B) and CD3ε-chain (FIGS. 18D, 18E), as shown by mean fluorescence intensity (MFI), measured in gated CD3^+ cells. FIG. 18C: Splenocytes from mice, naïve, inflamed and inflamed treated with 5-FU or CPT-11, were labeled with CFSE and activated with anti-CD3 and anti-CD28 antibodies or left non-activated. The proliferative response was assessed by monitoring cell divisions of gated CFSE-labeled Thy1.2+ (CD90+) T-cells. The percent of proliferating cells was calculated and compared to steady state levels of non-activated cells per each group. Data from three independent experiments is presented (n=3). Statistical analyses using t test indicated significant differences at 95%. Means and SEM are shown. *, P<0.05; **, P<0.01. FIG. 18F-18I. For the detection of myeloid differentiation state, splenocytes from each group were stained for (18F) DC11b^+CD11c^+ cells (representing DCs), (18G) DC11b^+F4/80^+ cells (representing monocytes), (18H) CD11c^+MHCII^+CD80^+ cells (representing fully differentiated […] as antigen presenting cells) and (18I) F4/80^+MHCII^+CD80^+ cells (representing fully differentiated […] as antigen presenting cells). Data from three independent experiments (n=4) is presented. Statistical analyses using t test indicated significant differences at 95%. Means and SEM are shown. *, P<0.05; **, P<0.01; ***, P<0.001. Abbreviations: Nor. (normal), Rel. (relative), Inf. (inflamed), ce. Pro. (cell proliferation)

[4] = test system: TNFα, IL-6, IFNγ; experiment: Real Time PCR of inflammatory cytokines in MDSCs and total splenocytes; assay type: in vivo, mice; conditions: relative to inflamed untreated; for mRNA levels of TNFα and IL-6: spleen-derived MDSCs and total splenocytes
[5] = test system: MDSCs; assay type: in vivo, mice; conditions: mouse, in vivo
[6] = test system: MDSCs; experiment: MDSC infiltration in colon lamina propria and epithel, CRC mouse model; assay type: in vivo; conditions: CRC-bearing mice, tumor tissue
[7] = test system: CD247 in NK (NCR1+) cells; experiment: CD247 expression in gated NK (NCR1+) cells from spleen; assay type: in vivo; conditions: spleen of BCG-inflamed mice, monotherapy
Protocol: FIG. 2E. CD247 expression was measured gating on NK (NCR1+) cells derived from the spleens of each group. Data from three independent experiments is presented (n=4). Statistical analyses using t test indicated significant differences at 95% Cl. Means and SEM are shown. *, P<0.05.
Isolated splenocytes and peripheral blood leukocytes (PBLs) were treated with erythrocyte lysis buffer and washed in PBS. Cells were pre-coated with anti-CD16/CD32 (Biolegend) for FcR blockage. For surface staining, cells were incubated for 30 min at 4° C. with FITC-labeled anti-Gr1, anti-CD11c, and anti-CD4; PE-labeled anti F4/80, anti-CD3ε, anti-CD45R/B220, and anti-mNKp46; and biotinylated anti-CD11b and anti-CD8 that were detected with streptavidin-Cy5 (Biolegend and eBioscience). Intracellular staining of CD247 cells was performed by subjecting the cells to fixation with paraformaldehyde (1%) for 20 min at 4° C., followed by washing and permeabilization for 10 min with saponin detergent (0.1%) at room temperature (RT). Cells were then washed and incubated with FITC-labeled monoclonal anti-CD247 (H146) (Abcam), or biotinylated monoclonal anti-CD247 (H146), which were subsequently detected with streptavidin-Cy5. FoxP3 staining was performed according to the manufacturer's instructions. Samples were analyzed using FACSCalibur with Cell Quest software (BD).

[8] = test system: CD247 (ζ chain); design: species or system mice; conditions: mouse, in vivo
[9] = test system: CD247 (ζ-chain); experiment: CD247 expression in spleen and PBLs, CRC mouse model; assay type: in vivo; conditions: CRC (AOM/DSS) mice, vs untreated CRC-bearing mice
Description: Means and SEM are shown. *, P<0.05; **, P<0.01. […] (normal).

[10] = test system: MDSCs (Gr1+CD11b+); experiment: MDSC accumulation in spleen and PBLs, AOM/DSS colorectal cancer (CRC) mouse model; assay type: in vivo; conditions: CRC (AOM/DSS) mice, i.p., vs untreated CRC group
Description: The mouse model for CRC was used as described in Experimental procedures. […] Mice were sacrificed at week +11, three weeks after the second DSS treatment. […] Graphs represent the percent of MDSCs presented within the spleen (FIG. 21A) and PBLs (FIG. 21C). Data from three independent experiments (n=3) is presented. […] Means and SEM are shown. *, P<0.05; **, P<0.01; ***, P<0.001.
The mouse model for CRC was established by two repeated injections of azoxymethane (AOM) (Sigma) in intervals of two weeks followed by two weekly administrations of DSS (Sigma) that was added to drinking water every two weeks for duration of about seven days. […] Mice were sacrificed at week +11, three weeks after the second DSS treatment.

[11] = test system: CD247; experiment: CD247 expression in T cells infiltrating the colon, CRC mouse model; assay type: in vivo; conditions: CRC-bearing mice

SMILES	survival of CRC mice (Kaplan-Meyer) [1]	levels of Treg cells (CD4+Foxp3+) in spleen [2]	mRNA levels of TNFα and IL-6 [4]	NO production by MDSCs [5]	ROS production by MDSCs [5]	MDSCs infiltration in lamina propria and colon epithelial tissue [6]	CD247 expression in T cells, PBLs [8]	CD247 expression in T cells, spleen [8]	CD247 expression levels in spleen and blood [9]	MDSC percentage in PBLs [10]	MDSC percentage in spleen [10]	CD247 expression levels in T cells infiltrating the colon [11]	other results
O=c1[nH]cc(F)c(=O)[nH]1 [5-FU, 5-Fluorouracil]	increased survival	remained unchanged	no significant changes	decreased	decreased	significantly reduced	significant recovery	recovered significantly; also recorded: significant recovery	significantly recovered	significant decrease	significant decrease	elevated	curable effects on colon structure and tumor loads ([1]; macroscopic and microscopic pathology): observed; proliferative capacity of T cells [3]: tendency of a functional recovery; reduction of hROS of MDSCs [5]: better results; CD247 expression in NK (NCR1+) cells [7]: recovery from immunosuppression; also recorded: almost completely recovered
CCc1c2c(nc3ccc(OC(=O)N4CCC(N5CCCCC5)CC4)cc13)-c1cc3c(c(=O)n1C2)COC(=O)[C@]3(O)CC [Irinotecan]	reduced survival rate	remained unchanged	no significant changes	significant elevation; also recorded: did not result in any further changes	significant elevation; also recorded: significantly increased	significantly increased	further significantly decreased; also recorded: tendency of decreased expression	further significantly decreased; also recorded: strong down-regulation	low as in the case of CRC-bearing, non-treated mice	no changes	significantly increased	Reduced levels	proliferative capacity of T cells ([3]; listed as CPT11): impaired proliferative capacity; proliferative capacity of T cells ([3]; listed as CPT-11): significantly diminished; mRNA level of IFNγ ([4]; MDSCs and total spleen-population): decreased; CD247 expression in NK (NCR1+) cells ([7]; listed as CPT11): low CD247 expression; CD247 expression in NK (NCR1+) cells ([7]; listed as CPT-11): remained down-regulated with no further decrease
